For test [1], the system named is SETVI. The test can be described thus: Post-emergence herbicidal action against SETVI. It is filed as in vivo, Setaria viridis. Conditions: 80 g/ha, visual assessment about 3 weeks after treatment vs untreated controls. Summed up:
(§1)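 Herbicidal action is rated visually in percent against untreated controls, where 100% means dead plants and 0% means no difference. Ratings come about 3 weeks after foliar spraying of one-leaf-stage plants with aqueous WP or EC preparations plus 0.2% wetting agent at 600 to 800 l/ha.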

Test [2] has as its system ECHCG. The test can be described thus: Pre-emergence herbicidal action against ECHCG. It is filed as in vivo, Echinochloa crus-galli. The following applies: 320 g/ha, scored visually after 3 weeks vs untreated controls. Put shortly: (§2)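 Weed and crop seeds sown in sandy loam, then WP or EC formulations sprayed onto covering soil pre-emergence as aqueous suspension or emulsion at 600 to 800 L/ha water with 0.2% wetting agent. Greenhouse-grown; visual damage scored after 3 weeks versus untreated controls, 0–100%.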

Test [3] concerns AVEFA. As to the kind of experiment: Post-emergence herbicidal action against AVEFA. The class given is in vivo, Avena fatua. The following applies: 80 g/ha, visual assessment after about 3 weeks. Put shortly:
as §1

The subject of test [4] is ALOMY. The test can be described thus: Pre-emergence herbicidal action against ALOMY. It is filed as in vivo, Alopecurus myosuroides. Conditions: 320 g/ha, scored visually after 3 weeks vs untreated controls. Summed up:
as §2

Test [5] relates to ECHCG. The test can be described thus: Post-emergence herbicidal action against ECHCG. It is filed as in vivo, Echinochloa crus-galli. Conditions: 80 g/ha, visual assessment about 3 weeks after treatment vs untreated controls. Put shortly: as §1
Test [6] has as its system DIGSA. The test can be described thus: Pre-emergence herbicidal action against DIGSA. The class given is in vivo, Digitaria sanguinalis. The following applies: 320 g/ha, scored visually after 3 weeks vs untreated controls. Summed up:
as §2

The test system of test [7] is LOLRI. As to the kind of experiment: Post-emergence herbicidal action against LOLRI. It is filed as in vivo, Lolium rigidum. Conditions: 80 g/ha, visual assessment about 3 weeks after treatment vs untreated controls. Put shortly:
as §1

In test [8] the test system is SETVI. As to the kind of experiment: Pre-emergence herbicidal action against SETVI. The class given is in vivo, Setaria viridis. The following applies: 320 g/ha, scored visually after 3 weeks vs untreated controls. Summed up: as §2
In test [9] the test system is LOLRI. As to the kind of experiment: Pre-emergence herbicidal action against LOLRI (Table 8, titled post-emergence at 320 g/ha). It is filed as in vivo, Lolium rigidum. Conditions: table stands in the pre-emergence section. Summed up: as §2
Test [10] deals with ABUTH. As to the kind of experiment: Post-emergence herbicidal action against ABUTH. The class given is in vivo, Abutylon threophrasti. The following applies: 80 g/ha, visual assessment about 3 weeks after treatment vs untreated controls. On the procedure: Seeds of monocotyledonous and dicotyledonous weed and crop plants are laid out in sandy loam soil in wood-fiber pots, covered with soil and cultivated in a greenhouse under good growth conditions. 2 to 3 weeks after sowing, the test plants are treated at the one-leaf stage. The compounds of the invention, formulated in the form of wettable powders (WP) or as emulsion concentrates (EC), are then sprayed onto the green parts of the plants as aqueous suspension or emulsion at a water application rate equating to 600 to 800 l/ha with addition of 0.2% wetting agent. After the test plants have been left to stand in the greenhouse under optimal growth conditions for about 3 weeks, the action of the preparations is assessed visually in comparison to untreated controls (herbicidal action in percent (%): 100% activity=the plants have died, 0% activity=like control plants).

For test [11], the system named is ALOMY. As to the kind of experiment: Post-emergence herbicidal action against ALOMY. The following applies: 80 g/ha, visual assessment after about 3 weeks. It is filed as in vivo, Alopecurus myosuroides. Summed up:
as §1

The subject of test [12] is AVEFA. The test can be described thus: Pre-emergence herbicidal action against AVEFA. The class given is in vivo, Avena fatua. Conditions: 320 g/ha, scored visually after 3 weeks vs untreated controls. Summed up:
as §2

Test [13] concerns DIGSA. As to the kind of experiment: Post-emergence herbicidal action against DIGSA. It is filed as in vivo, Digitaria sanguinalis. The following applies: 80 g/ha, visual assessment about 3 weeks after treatment vs untreated controls. Put shortly: as §1
For test [14], the system named is VIOTR. The test can be described thus: Pre-emergence herbicidal action against VIOTR. The class given is in vivo, Viola tricolor. Conditions: 320 g/ha. Put shortly:
as §2

Test [15] has as its system MATIN. As to the kind of experiment: Pre-emergence herbicidal action against MATIN. It is filed as in vivo. Conditions: 320 g/ha. The text has this:
(§3) Seeds of monocotyledonous and dicotyledonous weed plants and crop plants are laid out in sandy loam soil in wood-fiber pots and covered with soil. The compounds of the invention, formulated in the form of wettable powders (WP) or as emulsion concentrates (EC), are then applied to the surface of the covering soil as aqueous suspension or emulsion at a water application rate equating to 600 to 800 L/ha with addition of 0.2% wetting agent.
(§4) After the treatment, the pots are placed in a greenhouse and kept under good growth conditions for the trial plants. The damage to the test plants is scored visually after a test period of 3 weeks by comparison with untreated controls (herbicidal activity in percent (%): 100% activity=the plants have died, 0% activity=like control plants).

Test [16] has as its system VERPE. As to the kind of experiment: Pre-emergence herbicidal action against VERPE. The following applies: 320 g/ha. It is filed as in vivo, Veronica persica.
From the text: as §3, §4

For test [17], the system named is AMARE. As to the kind of experiment: Pre-emergence herbicidal action against AMARE. Conditions: 320 g/ha. The class given is in vivo, Amaranthus retroflexus. Put shortly:
as §2

SMILES strings stand for the structures.

Regarding `CC#Cc1cc(F)c(C2=C(OC(=O)C(C)C)C3(CCC(COCC)C3)NC2=O)c(OC)c1` (stereo not shown) [Example P-64], the “Post-emergence action against SETVI in %” value in test [1] was found to be 100%. The “Pre-emergence action against ECHCG in %” value in test [2] was 90%. Moreover, the “Post-emergence action against AVEFA in %” value in [3] is 80%. Also, the “Pre-emergence action against ALOMY in %” value in test [4] amounted to 100%. For the same compound, the “Post-emergence action against ECHCG in %” value in [5] came out at 100%. Moreover, the “Pre-emergence action against DIGSA in %” value in test [6] stood at 100%. For the same compound, the “Post-emergence action against LOLRI in %” value in test [7] amounted to 100%. The “Pre-emergence action against SETVI in %” value in test [8] is on record as 100%. For the same compound, in test [9], the “Pre-emergence herbicidal action against LOLRI in %” value was 100%. In addition, in test [10], the “Post-emergence action against ABUTH in %” value turned out to be 80%. For the same compound, the “Post-emergence action against ALOMY in %” value in test [11] is given as 100%. In test [12], the “Pre-emergence action against AVEFA in %” value was 80%. For the same compound, in [13], the “Post-emergence action against DIGSA in %” value was found to be 100%.

Turning to `CC#Cc1cc(C)c(C2=C(OC(=O)OCC)C3(CCC(COC)C3)NC2=O)c(OC)c1` (stereo not shown) [Example P-55], the “Post-emergence action against SETVI in %” value in test [1] is 100%. The “Pre-emergence action against ECHCG in %” value in [2] was 100%. Further, in [3], the “Post-emergence action against AVEFA in %” value was 100%. In addition, in test [4], the “Pre-emergence action against ALOMY in %” value turned out to be 100%. In addition, in test [14], the “Pre-emergence action against VIOTR in %” value came to 100%. For the same compound, in test [5], the “Post-emergence action against ECHCG in %” value turned out to be 100%. Also, in test [6], the “Pre-emergence action against DIGSA in %” value was 100%. The “Post-emergence action against LOLRI in %” value in test [7] is 100%. In addition, in test [15], the “Pre-emergence action against MATIN in %” value is on record as 90%. For the same compound, the “Pre-emergence action against SETVI in %” value in test [8] was 100%. For the same compound, in test [9], the “Pre-emergence herbicidal action against LOLRI in %” value came out at 100%. The “Post-emergence action against ALOMY in %” value in test [11] was found to be 100%. In addition, the “Pre-emergence action against AVEFA in %” value in [12] was 80%. For the same compound, the “Post-emergence action against DIGSA in %” value in test [13] was 100%. Further, the “Pre-emergence action against VERPE in %” value in test [16] worked out at 80%.

As for `CC#Cc1cc(C)c(C2=C(O)C3(CCC(COCC)C3)NC2=O)c(F)c1` (stereo not shown) [Example I-35], in test [3], the “Post-emergence action against AVEFA in %” value turned out to be 80%. Further, in test [4], the “Pre-emergence action against ALOMY in %” value is 100%. The “Pre-emergence action against VIOTR in %” value in test [14] came to 100%. The “Post-emergence action against ECHCG in %” value in test [5] turned out to be 100%. For the same compound, the “Pre-emergence action against DIGSA in %” value in test [6] was found to be 100%. For the same compound, in test [7], the “Post-emergence action against LOLRI in %” value came to 100%. In addition, the “Pre-emergence action against SETVI in %” value in [8] came out at 100%. Further, the “Pre-emergence herbicidal action against LOLRI in %” value in test [9] was determined as 100%. Also, the “Post-emergence action against ABUTH in %” value in test [10] stood at 80%. The “Post-emergence action against ALOMY in %” value in test [11] stood at 100%. Further, the “Post-emergence action against DIGSA in %” value in test [13] stood at 100%. In [17], the “Pre-emergence action against AMARE in %” value is listed as 90%.

Take `CC#Cc1cc(Br)c(C2=C(OC(=O)OCC)C3(CCC(COCC)C3)NC2=O)c(OC)c1` (stereo not shown) [Example P-01]: the “Post-emergence action against SETVI in %” value in [1] is listed as 100%. Further, the “Pre-emergence action against ECHCG in %” value in test [2] was 100%. Further, the “Pre-emergence action against ALOMY in %” value in [4] was 100%. Also, the “Pre-emergence action against VIOTR in %” value in [14] is 100%. Moreover, in test [5], the “Post-emergence action against ECHCG in %” value is listed as 100%. Further, the “Pre-emergence action against DIGSA in %” value in [6] worked out at 100%. The “Post-emergence action against LOLRI in %” value in test [7] was 100%. Also, the “Pre-emergence action against MATIN in %” value in [15] turned out to be 80%. Moreover, in test [8], the “Pre-emergence action against SETVI in %” value is 100%. The “Pre-emergence herbicidal action against LOLRI in %” value in [9] is 100%. In addition, the “Post-emergence action against ALOMY in %” value in test [11] is on record as 100%. Besides, the “Pre-emergence action against AVEFA in %” value in test [12] came to 100%. Further, the “Post-emergence action against DIGSA in %” value in [13] came out at 100%. In addition, the “Pre-emergence action against VERPE in %” value in test [16] is 100%. In addition, in test [17], the “Pre-emergence action against AMARE in %” value is recorded as 100%.
